Laboratory results published in patent US20100111972A1, “Method for preventing or treating opiate tolerance and dependence” (priority 2008, published 2010).

Columns and labels:
Assay type in all cases: in vivo, mice
CGRP = CGRP immunofluorescence in dorsal horn after morphine treatment and withdrawal; conditions: repeated morphine exposure (7 escalating i.p. doses)
Description: (§1) Mice were anesthetized and perfused transcardially with cold saline followed by ice-cold 4% paraformaldehyde solution. The lumbar segment of the SC was dissected out and post-fixed at 4° C. for 4 h with the paraformaldehyde solution, then the Histo Prep (Fisher Scientific, Fair Lawn, N.J.) embedded blocks were sectioned on a Leica CM1850 cryostat (Leica Microsystems, Germany). Sections (10 μm) were thaw-mounted on to glass slides and allowed to air dry. The immunofluorescence staining was performed as previously described (Kerr et al, 2000). Endogenous peroxidases were blocked by incubating tissue sections with 0.3% hydrogen peroxide for 30 min and 3% normal goat serum for 20 min. […]
(§2) The morphologic details of the immunofluorescence staining on SC were studied under a fluorescence microscope (Olympus BX51WI; Olympus America Inc., Melville, N.Y.). […] Fos-immunoreactive neurons were counted in blind fashion. The number of Fos-like immunoreactive neurons in DH (laminae I-VI) was determined by averaging the counts made in 20 SC sections (L4-L5) for each group. To obtain quantitative measurements of CGRP immunofluorescence, 15-20 fields covering the entire DH in each group were evaluated and photographed at the same exposure time to generate the raw data. Fluorescence intensities of the different groups were analyzed using MicroSuite image analysis software (Olympus America Inc.). […]

EphB1 receptor protein = assay: Western blot of EphB1 receptor protein in spinal cord; conditions: SC
Description: (§3) Western blot analysis was used to detect expression of EphB receptors, ephrinBs, and phosphorylated NR2B, ERK and CREB proteins in the SC. A total of 108 mice were used for Western blotting experiments (SC from 4 mice were pooled for each sample and each group consisted of 3 samples). The lumbar segments of the SC were quickly extracted and immediately frozen in liquid nitrogen, and stored at −80° C. The procedure used to quantify temporal changes in protein levels was similar to that previously described (Bundesen et al, 2003). In brief, protein precipitation procedures in conjunction with Western blots were used to detect protein bands with an enhanced chemiluminescent (ECL) detection procedure. Sequential precipitation procedures were used on tissue samples that were lysed in ice-cold (4° C.) lysis buffer [50 mM Tris, pH 7.5, containing 150 mM NaCl, 1% Triton X-100, 0.5% deoxycholate, 0.1% SDS, 0.2 mM EDTA, 10 mM NaF, […], 0.4 mM 4-(2-aminoethyl)-benzenesulfonyl fluoride, and 1 mM sodium orthovanadate. The protein concentration of the lysates was estimated using the method of BCA (Pierce, Ill.), and the total protein content between samples was equalized. […] Data were analyzed with the Molecular Imager (Gel Doc™ XR, 170-8170) and the associated software Quantity One-4.6.5 (Bio-Rad Laboratories, Hercules, Calif.).

p-NR2B = assay: Western blot of phosphorylated NR2B in spinal cord; conditions: escalated morphine treatment; SC
Description: as §3

p-ERK = assay: Western blot of phosphorylated ERK in spinal cord; conditions: escalated morphine treatment; SC
Description: as §3

p-CREB = assay: Western blot of phosphorylated CREB in spinal cord; conditions: escalated morphine treatment; SC
Description: as §3

ephrinB1 = assay: Western blot of ephrinB1 in spinal cord; conditions: following escalating morphine treatment or morphine withdrawal; SC
Description: as §3

ephrinB2 = assay: Western blot of ephrinB2 in spinal cord; conditions: following escalating morphine treatment or morphine withdrawal; SC
Description: as §3

[1] = system: phosphotyrosine (PY99) proteins; assay: Western blot of phosphotyrosine (PY99) proteins in spinal cord; conditions: following escalating morphine treatment or morphine withdrawal; SC
Description: as §3

c-Fos = c-Fos immunostaining in dorsal horn during morphine withdrawal; conditions: naloxone challenge after escalating morphine treatment
Description: as §1, §2

| SMILES | expression of CGRP throughout the DH region of the SC (CGRP) | expression of EphB1 receptor protein (EphB1 receptor protein; after escalating morphine treatment) | level of p-NR2B protein (p-NR2B) | level of p-ERK protein (p-ERK) | level of p-CREB protein (p-CREB) | expression of ephrinB1 (ephrinB1) | expression of ephrinB2 (ephrinB2) | expression of phosphotyrosine (PY99) proteins [1] | number of Fos-like immunoreactive neurons in the dorsal horn (c-Fos) | morphine-induced increase in EphB1 receptor protein expression (EphB1 receptor protein; naloxone treatment after escalating morphine) |
| --- | --- | --- | --- | --- | --- | --- | --- | --- | --- | --- |
| CN1CC[C@]23c4c5ccc(O)c4O[C@H]2[C@@H](O)C=C[C@H]3[C@H]1C5 [morphine] | greatly increased | significantly increased | significant increases | significant increases | significant increases | failed to show significant changes | failed to show significant changes | failed to show significant changes |  |  |
| C=CCN1CC[C@]23c4c5ccc(O)c4O[C@H]2C(=O)CC[C@@]3(O)[C@H]1C5 [naloxone] |  |  |  |  |  |  |  |  | significantly increased | did not significantly alter |
